Laboratory results: PubChem BioAssay AID248 (DTP/NCI, 2004)
Inconclusive results and toxic doses are left out. No stated cut-off is given here; in the data, active means T/C of 150% or more; inactive means T/C below 125%.

System: L1210 leukemia ip in BDF1 mice, survival T/C
Test: NCI In Vivo Anticancer Drug Screen. Data for tumor model L1210 Leukemia (intraperitoneal) in B6D2F1 (BDF1) mice
Conditions: endpoint: mean survival time, higher = longer survival
Outline: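 Survival endpoint. Drug-treated group vs vehicle group, expressed as T divided by C. Tumor passaged by transplantation.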

[1] = dose: 100.0 mg/kg/injection, schedule: Q01DX009 (ip), vehicle: saline with Tween-80
[2] = dose: 100.0 mg/kg/injection, schedule: Q04DX003 (ip), vehicle: saline with Tween-80
[3] = dose: 200.0 mg/kg/injection, schedule: Q01DX009 (ip), vehicle: saline with Tween-80
[4] = dose: 400.0 mg/kg/injection, schedule: Q01DX009 (ip), vehicle: saline with Tween-80
[5] = dose: 100.0 mg/kg/injection, schedule: Q01DX009 (ip), vehicle: Klucel (hydroxypropylcellulose) (HPC)
[6] = dose: 100.0 mg/kg/injection, schedule: Q04DX003 (ip), vehicle: Klucel (hydroxypropylcellulose) (HPC)
[7] = dose: 200.0 mg/kg/injection, schedule: Q01DX009 (ip), vehicle: Klucel (hydroxypropylcellulose) (HPC)
[8] = dose: 200.0 mg/kg/injection, schedule: Q04DX003 (ip), vehicle: Klucel (hydroxypropylcellulose) (HPC)
[9] = dose: 400.0 mg/kg/injection, schedule: Q04DX003 (ip), vehicle: Klucel (hydroxypropylcellulose) (HPC)
[10] = dose: 400.0 mg/kg/injection, schedule: Q01DX009 (ip), vehicle: Klucel (hydroxypropylcellulose) (HPC)
[11] = dose: 100.0 mg/kg/injection, schedule: Q01DX001 (ip), vehicle: saline
[12] = dose: 100.0 mg/kg/injection, schedule: Q04DX002 (ip), vehicle: saline with Tween-80
[13] = dose: 200.0 mg/kg/injection, schedule: Q01DX001 (ip), vehicle: saline
[14] = dose: 200.0 mg/kg/injection, schedule: Q04DX002 (ip), vehicle: saline with Tween-80
[15] = dose: 400.0 mg/kg/injection, schedule: Q01DX001 (ip), vehicle: saline
[16] = dose: 25.0 mg/kg/injection, schedule: Q04DX003 (ip), vehicle: saline
[17] = dose: 50.0 mg/kg/injection, schedule: Q04DX003 (ip), vehicle: saline
[18] = dose: 100.0 mg/kg/injection, schedule: Q04DX003 (ip), vehicle: saline
[19] = dose: 200.0 mg/kg/injection, schedule: Q04DX003 (ip), vehicle: saline with Tween-80
[20] = dose: 400.0 mg/kg/injection, schedule: Q04DX003 (ip), vehicle: saline with Tween-80
[21] = dose: 100.0 mg/kg/injection, schedule: Q04DX002 (ip), vehicle: saline
[22] = dose: 200.0 mg/kg/injection, schedule: Q04DX003 (ip), vehicle: saline
[23] = dose: 400.0 mg/kg/injection, schedule: Q04DX003 (ip), vehicle: saline
[24] = dose: 100.0 mg/kg/injection, schedule: Q01DX009 (ip), vehicle: saline
[25] = dose: 200.0 mg/kg/injection, schedule: Q01DX009 (ip), vehicle: saline
[26] = dose: 400.0 mg/kg/injection, schedule: Q01DX009 (ip), vehicle: saline
[27] = dose: 50.0 mg/kg/injection, schedule: Q01DX001 (ip), vehicle: saline
[28] = dose: 25.0 mg/kg/injection, schedule: Q01DX009 (ip), vehicle: saline
[29] = dose: 50.0 mg/kg/injection, schedule: Q01DX009 (ip), vehicle: saline

Measured: T/C

c1ccc(CNc2cccc3c(NCc4ccccc4)cccc23)cc1
inactive: dose: 100.0 mg/kg/injection, schedule: Q01DX001 (ip), vehicle: saline with Tween-80 87 % of control | [1] 86 % of control | [2] 88 % of control | dose: 200.0 mg/kg/injection, schedule: Q01DX001 (ip), vehicle: saline with Tween-80 95 % of control | [3] 93 % of control | dose: 400.0 mg/kg/injection, schedule: Q01DX001 (ip), vehicle: saline with Tween-80 88 % of control | [4] 95 % of control

CC(=O)OCC1OC(S[As](C)C)C(OC(C)=O)C(OC(C)=O)C1OC(C)=O (stereo not drawn)
inactive: [5] 101 % of control | [6] 101 % of control | [7] 103 % of control | [8] 100 % of control | [9] 100 % of control

O=C(O)CN1C(=O)c2cccc([N+](=O)[O-])c2C1=O
inactive: [5] 100 % of control | [7] 100 % of control | [10] 101 % of control

CCOC(=O)CC(CC[N+](=O)[O-])C(=O)OCC (stereo not drawn)
inactive: dose: 50.0 mg/kg/injection, schedule: Q04DX002 (ip), vehicle: saline with Tween-80 108 % of control | [11] 109 % of control | [12] 89 % of control | [13] 110 % of control | [14] 96 % of control | [15] 97 % of control

CCCCCCCCC(=O)N1CCC(C)CC1
inactive: dose: 200.0 mg/kg/injection, schedule: Q04DX002 (ip), vehicle: Klucel (hydroxypropylcellulose) (HPC) 106 % of control | dose: 400.0 mg/kg/injection, schedule: Q04DX002 (ip), vehicle: Klucel (hydroxypropylcellulose) (HPC) 95 % of control

Cc1ccc(OCCOc2ccc(C(=O)O)cc2)cc1
inactive: [6] 95 % of control | [8] 101 % of control | [9] 101 % of control

CN(C)CCN1c2ccccc2Sc2ccccc21
inactive: dose: 12.5 mg/kg/injection, schedule: Q04DX003 (ip), vehicle: saline 97 % of control | [16] 108 % of control | [17] 103 % of control | [18] 101 % of control

Brc1ccc(C#Cc2ccccc2)cc1
inactive: [5] 100 % of control | [7] 100 % of control | [10] 108 % of control

COc1ccc(N(C)CC(O)CN)cc1 (stereo not drawn)
inactive: [11] 108 % of control | [13] 104 % of control

CCCCCCCCCCCCCCCCOc1cccc(C=O)c1
inactive: [2] 97 % of control | [19] 93 % of control | [20] 116 % of control

Clc1c(C(Cl)(Cl)Cl)nc2ccccc2c1Cl
inactive: dose: 12.5 mg/kg/injection, schedule: Q01DX009 (ip), vehicle: Klucel (hydroxypropylcellulose) (HPC) 115 % of control | dose: 25.0 mg/kg/injection, schedule: Q01DX009 (ip), vehicle: Klucel (hydroxypropylcellulose) (HPC) 107 % of control | dose: 50.0 mg/kg/injection, schedule: Q01DX009 (ip), vehicle: Klucel (hydroxypropylcellulose) (HPC) 86 % of control

CCC(NC(C)=O)C(=O)O (stereo not drawn)
inactive: [21] 101 % of control | [18] 104 % of control | dose: 200.0 mg/kg/injection, schedule: Q04DX002 (ip), vehicle: saline 90 % of control | [22] 96 % of control | dose: 400.0 mg/kg/injection, schedule: Q04DX002 (ip), vehicle: saline 116 % of control | [23] 95 % of control

CNc1ccc(C(=O)C2CC2)cc1
inactive: [1] 92 % of control | [2] 100 % of control | [3] 98 % of control | [19] 100 % of control | [20] 86 % of control

O=S(=O)(Nc1ccccc1F)c1cc(Cl)c(Cl)cc1Cl
inactive: [24] 96 % of control | [25] 96 % of control | [26] 94 % of control

CC1(C)C2(C)CC12C (stereo not drawn)
inactive: dose: 2.5 mg/kg/injection, schedule: Q01DX009 (ip), vehicle: saline 92 % of control | dose: 5.0 mg/kg/injection, schedule: Q01DX009 (ip), vehicle: saline 91 % of control | dose: 10.0 mg/kg/injection, schedule: Q01DX009 (ip), vehicle: saline 87 % of control

O=C(CCCC(=O)N/N=C/c1ccc(Cl)c([N+](=O)[O-])c1)N/N=C\c1ccc(Cl)c([N+](=O)[O-])c1
inactive: [27] 96 % of control | [11] 102 % of control | [13] 96 % of control | [15] 98 % of control

O=C1OCC(O)=C1Cc1ccccc1
inactive: [11] 101 % of control | [13] 89 % of control | [15] 94 % of control

Nc1ccc2c(c1)C(=O)c1c(F)ccc(F)c1-2
inactive: dose: 50.0 mg/kg/injection, schedule: Q01DX001 (ip), vehicle: carboxymethylcellulose (CMC) 98 % of control | dose: 100.0 mg/kg/injection, schedule: Q01DX001 (ip), vehicle: carboxymethylcellulose (CMC) 96 % of control | dose: 200.0 mg/kg/injection, schedule: Q01DX001 (ip), vehicle: carboxymethylcellulose (CMC) 104 % of control | dose: 400.0 mg/kg/injection, schedule: Q01DX001 (ip), vehicle: carboxymethylcellulose (CMC) 115 % of control

CCCCC(CCCC)c1ccccn1
inactive: [18] 97 % of control | [22] 97 % of control | [23] 93 % of control

COc1ccc(-c2oc3ccccc3c(=O)c2O)cc1OC
inactive: [27] 87 % of control | [11] 98 % of control | [13] 91 % of control | [15] 93 % of control

CC(C)(C)S(=O)(=O)c1nc2ccccc2s1
inactive: [6] 93 % of control | [8] 107 % of control | [9] 90 % of control

CCC(C)(OC(=O)c1ccc([N+](=O)[O-])cc1)C(C)C (stereo not drawn)
inactive: dose: 75.0 mg/kg/injection, schedule: Q04DX002 (ip), vehicle: saline with Tween-80 95 % of control | dose: 150.0 mg/kg/injection, schedule: Q04DX002 (ip), vehicle: saline with Tween-80 91 % of control

COc1ccc(C2C(=O)c3ccccc3C2=O)cc1OC
inactive: dose: 100.0 mg/kg/injection, schedule: Q01DX001 (ip), vehicle: Klucel (hydroxypropylcellulose) (HPC) 94 % of control | dose: 200.0 mg/kg/injection, schedule: Q01DX001 (ip), vehicle: Klucel (hydroxypropylcellulose) (HPC) 88 % of control

CCCC(F)C(=O)OCC (stereo not drawn)
inactive: [1] 108 % of control | [2] 98 % of control | [3] 94 % of control | [19] 96 % of control | [4] 87 % of control | [20] 106 % of control

C#CCOCC1CNC(=O)O1 (stereo not drawn)
inactive: [28] 95 % of control | [16] 103 % of control | [29] 96 % of control | [17] 105 % of control | [24] 96 % of control | [18] 97 % of control | [25] 101 % of control | [22] 100 % of control | [26] 91 % of control | [23] 105 % of control

CN(C)Cc1ncccc1OC(=O)N(c1ccccc1)c1ccccc1
inactive: dose: 12.5 mg/kg/injection, schedule: Q01DX009 (ip), vehicle: saline 97 % of control | [28] 97 % of control | [29] 100 % of control

Cc1ccc(NP(Br)(c2ccccc2)(c2ccccc2)c2ccccc2)cc1
inactive: dose: 75.0 mg/kg/injection, schedule: Q01DX001 (ip), vehicle: acetone 95 % of control

OCCN1CC2CCCC1O2 (stereo not drawn)
inactive: [27] 101 % of control | [11] 101 % of control | [13] 103 % of control | [15] 101 % of control

CCCCC(N)P(=O)(O)O (stereo not drawn)
inactive: dose: 25.0 mg/kg/injection, schedule: Q04DX002 (ip), vehicle: saline 110 % of control | dose: 50.0 mg/kg/injection, schedule: Q04DX002 (ip), vehicle: saline 105 % of control | [21] 95 % of control

O=[N+]([O-])c1ccc(S(=O)CCl)cc1 (stereo not drawn)
inactive: [6] 98 % of control | [8] 105 % of control

Cc1nc2c(-c3ccccc3)nc(C)n2nc1C
inactive: [12] 111 % of control | [14] 108 % of control | dose: 400.0 mg/kg/injection, schedule: Q04DX002 (ip), vehicle: saline with Tween-80 92 % of control

N#Cc1ccccc1N=NNc1ccc(-c2nc(N)nc(N)n2)cc1
inactive: [18] 94 % of control | [22] 89 % of control | [23] 89 % of control
